Structures can show the parent of a compound that is named as a salt. Where two headings read alike, the source gives them in different places.
Experiments:
[1] = test system: MES-induced seizure model; assay: MES-induced seizure model; type: in vivo, mice; conditions: for ED50, MES: mice IP, 0.5 hrs
scMET model = assay: scMET model; type: in vivo, mice; conditions: for N/F (animals protected over tested): IP quantification, 0.5 h
6 Hz (32 mA) model = assay: 6 Hz (32 mA) model; type: in vivo, mice; conditions: identification screen IP
Protocol: ASP469016 was tested in our initial T31 (MES/scMET/Tox) screen at 30, 100, and 300 mg/kg. The data for each condition is presented as N/F, where N equals the number of animals protected and F equals the number of animals tested. For tests of toxicity (TOX), N equals the number of animals displaying toxic effects and F equals the number of animals tested. Codes in the C column refer to comments from the technicians performing the experiment and are defined in the comments section if necessary. Any deaths are noted. As shown in the 6 Hz (32 mA) model only 1/4 animals were protected at 100 mg/kg at 30 min. In the MES-induced seizure model only 1/4 animals were protected at 100 and 300 mg/kg at 30 min. No toxicity (unable to grasp rotorod) or activity was detected at any other dose or time point tested.

mice = conditions: mouse, in vivo
scn1Lab mutant zebrafish [2] = type: in vivo, Danio rerio (zebrafish); conditions: for inhibition of spontaneous seizure behavior, initial screen: 667 μM; for swim activity / seizure behavior, third trial: 100 μM
wild-type larvae = assay: DMSO toxicity in larvae; conditions: dilutions between 0.01 and 100%; n=12 fish per concentration
scn1Lab mutant zebrafish [3] = type: in vivo, Danio rerio (zebrafish); conditions: for forebrain electrographic seizure activity after the locomotion assay: 100 μM
[4] = test system: WT zebrafish exposed to 15 mM pentylenetetrazole; assay: PTZ-induced seizure behavior, locomotion assay; type: in vivo; conditions: 100 μM, n=10
[5] = 1 mM (KD: 48 hr exposure), 5 dpf

Clc1ccc(Cn2c(CN3CCCC3)nc3ccccc32)cc1 [ASP469016]
activity during determination of the TPE in the MES model ([1]; 300 mg/kg starting dose): no activity | activity in the qualitative MES screen ([1]; 100 and 300 mg/kg doses): some activity | N/F (animals protected over tested) ([1]; IP quantification, 350 mg/kg, 0.5 h): 0/8 | N/F (animals protected over tested) ([1]; IP quantification, 400 mg/kg, 0.5 h): 7/8 | N/F (animals protected over tested) ([1]; IP quantification, 500 mg/kg, 0.5 h): 4/4 | N/F (animals protected over tested) ([1]; identification screen IP, 30 mg/kg, 0.5 h): 0/4 | N/F (animals protected over tested) ([1]; identification screen IP, 30 mg/kg, 2.0 h): 0/4 | N/F (animals protected over tested) ([1]; identification screen IP, 100 mg/kg, 0.5 h): 1/4 | N/F (animals protected over tested) ([1]; identification screen IP, 100 mg/kg, 2.0 h): 0/4 | N/F (animals protected over tested) ([1]; identification screen IP, 300 mg/kg, 0.5 h): 1/4 | N/F (animals protected over tested) ([1]; identification screen IP, 300 mg/kg, 2.0 h): 0/4 | ED50, MES [1]: < 400 mg/kg | ED50, MES ([1]; listed as 469016): <400.0 mg/kg | N/F (animals protected over tested) ([1]; time to peak effect, 300 mg/kg, 0.25 h): 0/4 | N/F (animals protected over tested) ([1]; time to peak effect, 300 mg/kg, 0.5 h): 0/4 | N/F (animals protected over tested) ([1]; time to peak effect, 300 mg/kg, 1.0 h): 0/4 | N/F (animals protected over tested) ([1]; time to peak effect, 300 mg/kg, 2.0 h): 0/4 | N/F (animals protected over tested) ([1]; time to peak effect, 300 mg/kg, 4.0 h): 0/4 | N/F (animals protected over tested) ([1]; time to peak effect, 500 mg/kg, 0.25 h): 2/4 | N/F (animals protected over tested) ([1]; time to peak effect, 500 mg/kg, 1.0 h): 0/4 | N/F (animals protected over tested) ([1]; time to peak effect, 500 mg/kg, 2.0 h): 0/4 | N/F (animals protected over tested) ([1]; time to peak effect, 500 mg/kg, 4.0 h): 0/4 | N/F (animals protected over tested) (scMET model; 200 mg/kg): 0/8 | N/F (animals protected over tested) (scMET model; 250 mg/kg): 0/4 | ED50, SCMET (scMET model; mice IP, 0.5 hrs): >250.0 mg/kg | activity in the scMET model (scMET model; quantitative testing): No activity | N/F (animals protected over tested) (6 Hz (32 mA) model; 30 mg/kg, 0.5 h): 0/4 | N/F (animals protected over tested) (6 Hz (32 mA) model; 30 mg/kg, 2.0 h): 0/4 | N/F (animals protected over tested) (6 Hz (32 mA) model; 100 mg/kg, 0.5 h): 1/4 | N/F (animals protected over tested) (6 Hz (32 mA) model; 100 mg/kg, 2.0 h): 0/4 | N/F (animals protected over tested) (6 Hz (32 mA) model; 300 mg/kg, 0.5 h): 0/4 | N/F (animals protected over tested) (6 Hz (32 mA) model; 300 mg/kg, 2.0 h): 0/4 | activity or toxicity (unable to grasp rotorod) (mice): No activity or toxicity | N/F (animals toxic over tested) (mice; 400 mg/kg): 0/8 | N/F (animals toxic over tested) (mice; 500 mg/kg): 0/4 | ED50, TOX (mice; ip): >500 mg/kg | N/F (animals toxic over tested) (mice; ip, 30 mg/kg): 0/8 | N/F (animals toxic over tested) (mice; ip, 100 mg/kg): 0/8 | N/F (animals toxic over tested) (mice; ip, 300 mg/kg): 0/8 | N/F (animals toxic over tested) (mice; ip, 500 mg/kg): 0/4

CC(=O)Nc1nnc(S(N)(=O)=O)s1 [Acetazolamide]
effect on locomotor seizure behavior (scn1Lab mutant zebrafish [2]; zebrafish, in vivo): increased seizure behavior

C[S+](C)[O-] [DMSO]
lethal DMSO dilution (wild-type larvae): > 25%

NCC(O)CC(=O)O (centres unmarked) [aminohydroxybutyric acid]
inhibition of spontaneous seizure behavior, initial screen (scn1Lab mutant zebrafish [2]; 5 dpf, 6-12 fish): ineffective

O=C(CCCl)NCc1ccccc1 [beclamide]
inhibition of spontaneous seizure behavior, initial screen (scn1Lab mutant zebrafish [2]): ineffective

NC(=O)N1c2ccccc2C=Cc2ccccc21 [carbamazepine]
Epileptiform event frequency (burst frequency; interictal- and ictal-like discharges) (scn1Lab mutant zebrafish [3]; zebrafish, in vivo): increased burst frequency | fish in which epileptiform activity became more frequent (scn1Lab mutant zebrafish [3]; zebrafish, in vivo): 2 of 7

Clc1ccc(Cn2c(CN3CCCC3)nc3ccccc32)cc1 [clemizole]
forebrain electrographic seizure activity after the locomotion assay (scn1Lab mutant zebrafish [3]): effective in suppressing spontaneous seizure activity | burst duration (scn1Lab mutant zebrafish [3]; n=7): 154 ± 127 ms | burst frequency (scn1Lab mutant zebrafish [3]; n=7): 0.2±0.01 bursts/min | fractional time spent seizing (scn1Lab mutant zebrafish [3]; n=7): 0.03±0.02% | PTZ-induced seizure behavior [4]: effective in reducing seizure behavior | swim activity / seizure behavior, third trial (scn1Lab mutant zebrafish [2]): effective in suppressing spontaneous seizure activity | seizure behavior in the locomotion assay (scn1Lab mutant zebrafish [2]; n=33): no significant effect | seizure-induced swim activity and mean velocity, re-test (scn1Lab mutant zebrafish [2]; zebrafish, in vivo): effective in reducing seizure-induced swim activity and mean velocity

C#CCN(C)CCCOc1ccc(Cl)cc1Cl [clorgiline HCl]
forebrain electrographic seizure activity after the locomotion assay (scn1Lab mutant zebrafish [3]): electrographic seizure events were still observed | swim activity / seizure behavior, third trial (scn1Lab mutant zebrafish [2]): reduced swim activity | seizure-induced swim activity and mean velocity, re-test (scn1Lab mutant zebrafish [2]; zebrafish, in vivo): effective in reducing seizure-induced swim activity and mean velocity

CN1C(=O)CN=C(c2ccccc2)c2cc(Cl)ccc21 [diazepam]
fractional time spent seizing (scn1Lab mutant zebrafish [3]; 1 mM bath applied, 5-6 dpf, vs baseline): reduced | Epileptiform event frequency (burst frequency; interictal- and ictal-like discharges) (scn1Lab mutant zebrafish [3]; 1 mM bath applied, agar-embedded mutants 5-6 dpf, vs baseline, 7 fish per drug): reduced | effect on locomotor seizure behavior (scn1Lab mutant zebrafish [2]; [5]): effectively inhibited seizure behavior

CCC1(C)CC(=O)NC1=O (centres unmarked) [ethosuximide]
fish in which epileptiform activity became more frequent (scn1Lab mutant zebrafish [3]; zebrafish, in vivo): 4 of 7 | effect on locomotor seizure behavior (scn1Lab mutant zebrafish [2]; zebrafish, in vivo): increased seizure behavior

CC(=O)[C@H]1CC[C@H]2[C@@H]3CC[C@H]4C[C@](C)(O)CC[C@]4(C)[C@H]3CC[C@]12C [ganaxolone]
effect on locomotor seizure behavior (scn1Lab mutant zebrafish [2]; [5]): effective

CC(C)CCCC(C)NC(C)C (centres unmarked) [iproheptine]
convulsive behavior (H1 antihistamines) (scn1Lab mutant zebrafish [2]; locomotor seizure assay, 5 dpf): failed to suppress convulsive behavior

Nc1nnc(-c2cccc(Cl)c2Cl)c(N)n1 [lamotrigine]
effect on locomotor seizure behavior (scn1Lab mutant zebrafish [2]; zebrafish, in vivo): no effect

CC[C@@H](C(N)=O)N1CCCC1=O [levetiracetam]
effect on locomotor seizure behavior (scn1Lab mutant zebrafish [2]; zebrafish, in vivo): no effect

CN1CCc2c(c3ccccc3n2Cc2ccccc2)C1.CN1CCc2c(c3ccccc3n2Cc2ccccc2)C1.O=S(=O)(O)c1cccc2c(S(=O)(=O)O)cccc12 [mebhydrolin napthalenesulfonate]
convulsive behavior (H1 antihistamines) (scn1Lab mutant zebrafish [2]; zebrafish, in vivo): failed to suppress convulsive behavior

CN1CCC(=C2c3ccccc3Sc3ccccc32)CC1 [pimethixene maleate]
convulsive behavior (H1 antihistamines) (scn1Lab mutant zebrafish [2]; zebrafish, in vivo): failed to suppress convulsive behavior

[Br-].[K+] [potassium bromide]
Epileptiform event frequency (burst frequency; interictal- and ictal-like discharges) (scn1Lab mutant zebrafish [3]; zebrafish, in vivo): reduced | fractional time spent seizing (scn1Lab mutant zebrafish [3]; zebrafish, in vivo): reduced | effect on locomotor seizure behavior (scn1Lab mutant zebrafish [2]; zebrafish, in vivo): effectively inhibited seizure behavior

CC(C)(C)C(O)/C=C/c1ccc2c(c1)OCO2 (centres unmarked) [stiripentol]
Epileptiform event frequency (burst frequency; interictal- and ictal-like discharges) (scn1Lab mutant zebrafish [3]; zebrafish, in vivo): reduced | fractional time spent seizing (scn1Lab mutant zebrafish [3]; zebrafish, in vivo): reduced | effect on locomotor seizure behavior (scn1Lab mutant zebrafish [2]; zebrafish, in vivo): effectively inhibited seizure behavior

CCNC1(c2cccs2)CCCCC1=O (centres unmarked) [tiletamine]
inhibition of spontaneous seizure behavior, initial screen (scn1Lab mutant zebrafish [2]; 5 dpf, 6-12 fish): ineffective

Cc1ccc(C(=O)C(C)CN2CCCCC2)cc1 (centres unmarked) [tolperisone HCl]
forebrain electrographic seizure activity after the locomotion assay (scn1Lab mutant zebrafish [3]): electrographic seizure events were still observed | swim activity / seizure behavior, third trial (scn1Lab mutant zebrafish [2]): reduced swim activity | seizure-induced swim activity and mean velocity, re-test (scn1Lab mutant zebrafish [2]; zebrafish, in vivo): effective in reducing seizure-induced swim activity and mean velocity

C=CC(N)CCC(=O)O (centres unmarked) [vigabatrin]
Epileptiform event frequency (burst frequency; interictal- and ictal-like discharges) (scn1Lab mutant zebrafish [3]; zebrafish, in vivo): increased burst frequency | fish in which epileptiform activity became more frequent (scn1Lab mutant zebrafish [3]; zebrafish, in vivo): 6 of 7

Reference: US10695325B2, “Compounds and methods for treating an epileptic disorder” (priority 2013, dated 2020)
